{
  "source": "patent US12379386B2",
  "about": "“Antibodies to 25-hydroxyvitamin D2 and D3 for detecting total 25-hydroxyvitamin D” (Siemens Healthcare Diagnostics Inc., priority 2011, dated 2025)",
  "key": {"[1]": {"system": "anti 25-hydroxy Vitamin D monoclonal antibody labeled with acridinium ester (monoclonal antibody 10H9)", "assay": "Cross-reactivity in ADVIA Centaur Vitamin D Total assay", "format": "binding, mouse", "method": "Biological sample is added to a reaction cuvette followed by displacement buffer and allowed to react for 4.5 minutes. Monoclonal antibody conjugated to acridinium ester is added and allowed to react for 5.5 minutes to bind 25-hydroxyvitamin D in the sample. […] The reaction cuvette is washed, and acid and base reagents are added to initiate the chemiluminescent reaction. The time-to-result is 18 minutes. An inverse relationship exists between the amount of 25-hydroxyvitamin D in the patient sample and the amount of relative light units (RLUs) detected by the system.\nAssay: The ADVIA Centaur Vitamin D Total assay is a one-pass, 18-minute antibody competitive immunoassay that uses an antifluorescein-labeled monoclonal antibody covalently bound to paramagnetic particles (PMPs), one monoclonal antibody labeled with acridinium ester (AE), and a vitamin D analog labeled with fluorescein (FIG. 8). The Vitamin D Total assay requires 20 μL of sample volume for a single determination. The time-to-first-result is 18 minutes and the throughput is 240 tests/hour.\nBriefly, the first step of the sequential step hapten/antibody competitive immunoassay using chemiluminescent technology begins with the analyzer dispensing 20 μL of biological sample into a cuvette followed by addition of 200 μl of displacement buffer (50 mM HEPES, 150 mM NaCl, 0.09% sodium azide, pH=7.5) containing 8-anilino-1-naphthalenesulfonic acid ammonium salt (Sigma-aldrich, St. Louis, MO) and ethylene glycol (Sigma-aldrich, St. Louis, MO) and incubation for 4.5 minutes at 37° C. Lite Reagent (50 μL) containing an anti 25-hydroxy Vitamin D monoclonal antibody labeled with acridinium ester (monoclonal antibody 10H9) is added to the mixture and incubated for 5.5 min at 37° C. C22-PEG-BSA-fluorescein conjugate (50 μL) and anti-fluorescein monoclonal antibody coated paramagnetic microparticles (100 μL) are added to the mixture and incubated for 3.75 minutes at 37° C. The fourth step is separation of Solid Phase complex with bound C22-PEG-BSA-fluorescein conjugate and anti 25-hydroxy vitamin D monoclonal antibody labeled with acridinium ester, followed by washing three times to remove any free Lite Reagent. Last is the sequential dispensing of 300 μL each of acid reagent then base reagent to initiate the chemiluminescent reaction. The total incubation time from sample to result is 18 minutes. There is an indirect relationship between the amount of 25-hydroxy vitamin D present in the biological sample and the amount of chemiluminescence quantified as relative light units (RLUs). In the Centaur-based assay, there is an inverse relationship between RLUs emitted by the acridinium ester and the amount of vitamin D because the 25-hydroxyvitamin D released from the carrier protein in the plasma competes with the Vitamin D-BSA-Fluorescein for binding with a limited amount of the acridinium-labeled 10H9 monoclonal antibody. Higher levels of 25(OH)D in the patient sample would lower the amount of the acridinium-MAb-VitD-BSA-Fluorescein complex on the magnetic particles resulting in lower RLUs.\nCross-reactivity: Five vitamin D derivatives were analyzed using the ADVIA Centaur Vitamin D Total assay. The vitamin D derivatives were spiked into a sample containing 27 ng/mL of vitamin D total. Three replicates of the spiked samples were assayed and the vitamin D total concentration determined."}, "BALB/c mice": {"system": "BALB/c mice", "assay": "ELISA of sera from mice immunized with vitamin D-C22 BSA", "format": "in vivo, mouse", "conditions": "coat Vit D C22 Lc-BSA 500 ng/mL, individual mice 0-4 in c3-c7", "method": "Experiments were conducted to produce antibodies that could preferentially bind to molecules having structural aspects of the vitamin D-C22 antigenic molecule. These experiments were conducted in accordance with the method of Galfre et al. (Nature, 266:550 (1977)), as modified by Oi and Herzenberg (Selected Methods in Cellular Immunology (1980)). Initially, BALB/c mice were immunized with vitamin D-C22 BSA emulsified in Freund's Complete adjuvant followed by a secondary immunization using Freund's Incomplete adjuvant. Sera of immunized mice were collected two weeks after the secondary immunization.\nCollected sera were tested for antigen reactivity by ELISA as follows: microtiter plates coated with vitamin D-C22 BSA were incubated with mouse antisera, diluted in dilution buffer, for one hour. Plates were washed and a secondary antibody (goat-anti-mouse IgG) conjugated to horseradish peroxidase (HRPO) in dilution buffer was added and incubated for 30 minutes. Plates were washed and the colorimetric substrate 3,3′,5,5′-tetramethylbenzidine (TMB) was added. The generated color was stopped using 1N sulfuric acid and the optical density was measured at 450 nm."}, "[2]": {"conditions": "crossreactant 100 ng/mL spiked, expected (endogenous) vitamin D total 27 ng/mL"}},
  "note": "“And” between values parts separate entries of the source, which are not always exact repeats. Equal values may be shown once.",
  "data": [
    {"compound": "C=C1CC[C@H](O)C/C1=C/C=C1\\CCC[C@]2(C)[C@@H]([C@H](C)/C=C/[C@H](C)C(C)(C)O)CC[C@@H]12", "note": "[25-(OH)-Vit D2, 25-hydroxyvitamin D2]", "values": [
      {"measurement": "Cross-reactivity", "setting": "[1]; at 50 ng/mL", "value": 105, "unit": "%"},
      {"measurement": "Cross-reactivity", "setting": "[1]; crossreactant 30 ng/mL spiked, expected (endogenous) vitamin D total 27 ng/mL", "value": 102, "unit": "%"}
    ]},
    {"compound": "vitamin D-C22 diaminobutane-suberoyl-BSA [Vit D C22]", "values": [
      {"measurement": "optical density at 450 nm", "setting": "BALB/c mice; serum dilution 1:100", "value": "3.747 and 3.687 and 3.625 and 3.700 and 3.652"},
      {"measurement": "optical density at 450 nm", "setting": "BALB/c mice; serum dilution 1:200", "value": "3.750 and 3.693 and 3.649 and 3.663 and 3.634"},
      {"measurement": "optical density at 450 nm", "setting": "BALB/c mice; serum dilution 1:400", "value": "3.602 and 3.640 and 3.633 (2×) and 3.441"},
      {"measurement": "optical density at 450 nm", "setting": "BALB/c mice; serum dilution 1:800", "value": "3.634 and 3.731 and 3.603 and 3.708 and 3.696"},
      {"measurement": "optical density at 450 nm", "setting": "BALB/c mice; serum dilution 1:1600", "value": "3.578 and 3.605 and 3.532 and 3.638 and 3.687"},
      {"measurement": "optical density at 450 nm", "setting": "BALB/c mice; serum dilution 1:3200", "value": "3.534 and 3.508 and 3.171 and 3.454 and 3.608"},
      {"measurement": "optical density at 450 nm", "setting": "BALB/c mice; serum dilution 1:6400", "value": "3.177 and 3.133 and 2.533 and 3.057 and 3.473"},
      {"measurement": "optical density at 450 nm", "setting": "BALB/c mice; serum dilution 1:12800", "value": "2.449 and 2.406 and 1.731 and 2.325 and 3.042"}
    ]},
    {"compound": "C=C1CC[C@H](O)C/C1=C/C=C1\\CCC[C@]2(C)[C@@H]([C@H](C)/C=C/[C@H](C)C(C)C)CC[C@@H]12", "note": "[Vitamin D2]", "values": [
      {"measurement": "Cross-reactivity (in words)", "setting": "[1]", "value": "very low cross-reactivity"},
      {"measurement": "Cross-reactivity", "setting": "[1]; [2]", "value": 0.04, "unit": "%"}
    ]},
    {"compound": "C=C1CC[C@H](O)C/C1=C/C=C1\\CCC[C@]2(C)[C@@H]([C@H](C)CCCC(C)(C)O)CC[C@@H]12", "note": "[25-(OH)-Vit D3, 25-hydroxyvitamin D3]", "values": [
      {"measurement": "Cross-reactivity", "setting": "[1]; crossreactant 27 ng/mL, expected (endogenous) vitamin D total 0 ng/mL", "value": 100, "unit": "%"}
    ]},
    {"compound": "C=C1CC[C@@H](O)C/C1=C/C=C1\\CCC[C@]2(C)[C@@H]([C@H](C)CCCC(C)(C)O)CC[C@@H]12", "note": "[3-epi-25(OH)D3]", "values": [
      {"measurement": "Cross-reactivity (in words)", "setting": "[1]", "value": "very low cross-reactivity"},
      {"measurement": "Cross-reactivity", "setting": "[1]; [2]", "value": 0.0, "unit": "%"}
    ]},
    {"compound": "C=C1CC[C@H](O)C/C1=C/C=C1\\CCC[C@]2(C)[C@@H]([C@H](C)CCCC(C)C)CC[C@@H]12", "note": "[Vitamin D3]", "values": [
      {"measurement": "Cross-reactivity (in words)", "setting": "[1]", "value": "very low cross-reactivity"},
      {"measurement": "Cross-reactivity", "setting": "[1]; [2]", "value": 0.04, "unit": "%"}
    ]}
  ]
}
